Test results reported in article PMC12520456, “Regulating Enzyme Activity via Microaggregates Mediated by Phase Separation” (Advanced Science, 2025).
Non-standard residues stand in square brackets, D forms with d. Residues, ends and D or L forms follow the SMILES beside them.

Key:
elastase = molecular target: T1, elastase (Sus scrofa, UniProt P00772); experiment: Fluorescence anisotropy specificity test; type: binding; settings: fluorescently labeled DPMD; Figure S3D
T1 construct: purchased Sangon
Procedure: (§1) To validate the design, DPMD was synthesized using solid‐phase synthesis employing HOBt/HBTU and Fmoc chemistry, following a sequence schematic diagram depicted in Figure 1A. Subsequently, a single reverse column purification by High‐performance liquid chromatography (HPLC) yielded DPMD with purity exceeding 95% at a yield surpassing 60% (Figure S1B, Supporting Information). Circular dichroism (CD) spectra were recorded for a 40 µM DPMD sample in an aqueous solution containing 20% TFE at room temperature. The use of 20% TFE was necessary to obtain a clear spectrum, as it enhances peptide solubility and stabilizes secondary structure.^[ [9] ^] […] To further confirm that DPMD's enzymatic targeting is specific and not a broad‐spectrum protein aggregation effect, we tested DPMD against other pancreatic enzymes and abundant plasma proteins. Fluorescently labeled DPMD was mixed with elastase, pancreatic lipase, α‐amylase, carboxypeptidase A, bovine serum albumin (BSA), and IgG, respectively, and fluorescence anisotropy was measured to detect binding. […] For example, anisotropy values for DPMD + elastase (or lipase, amylase, etc.) remained near the baseline (DPMD‐alone) level, whereas DPMD + trypsin produced a pronounced anisotropy elevation (reflecting peptide‐enzyme complex formation and microaggregate assembly).
(§2) Figure S3. […]
(§3) (D-H) The fluorescent anisotropy
(§4) evaluation of binding affinity between DPMD peptide with elastase (D), lipase (E), amylase(F), carboxypeptidase
(§5) (G), albumin (H) and immunoglobulins (I). […]

carboxypeptidase A = experiment: Fluorescence anisotropy specificity test; type: binding; settings: fluorescently labeled DPMD; Figure S3G
Procedure: as §1, §2, §3, §4, §5

[1] = molecular target: T2, bovine serum albumin (BSA) (Bos taurus, UniProt P02769); experiment: Fluorescence anisotropy specificity test; type: binding; settings: fluorescently labeled DPMD; Figure S3H
T2 construct: purchased Psaitong Biotechnology
Procedure: as §1, §2, §3, §4, §5

α-amylase = experiment: Fluorescence anisotropy specificity test; type: binding; settings: fluorescently labeled DPMD; Figure S3F
Procedure: as §1, §2, §3, §4, §5

IgG = experiment: Fluorescence anisotropy specificity test; type: binding; settings: fluorescently labeled DPMD; Figure S3I
Procedure: as §1, §2, §3, §4, §5

pancreatic lipase = molecular target: T3, pancreatic lipase (Sus scrofa, UniProt P00591); experiment: Fluorescence anisotropy specificity test; type: binding; settings: fluorescently labeled DPMD; Figure S3E
T3 construct: purchased Macklin
T3 sequence (P00591 1-450): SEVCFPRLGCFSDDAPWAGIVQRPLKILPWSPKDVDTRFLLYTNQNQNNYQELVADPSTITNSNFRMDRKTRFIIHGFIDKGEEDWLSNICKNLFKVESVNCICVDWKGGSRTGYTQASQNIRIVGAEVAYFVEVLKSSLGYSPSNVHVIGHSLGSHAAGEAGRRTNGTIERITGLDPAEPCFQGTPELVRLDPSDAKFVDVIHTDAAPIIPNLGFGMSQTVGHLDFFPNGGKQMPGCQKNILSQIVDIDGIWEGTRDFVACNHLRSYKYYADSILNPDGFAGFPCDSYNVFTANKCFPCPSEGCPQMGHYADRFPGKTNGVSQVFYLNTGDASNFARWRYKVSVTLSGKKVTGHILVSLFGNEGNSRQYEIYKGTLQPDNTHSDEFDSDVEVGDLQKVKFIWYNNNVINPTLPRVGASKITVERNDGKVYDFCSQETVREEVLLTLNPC
Procedure: as §1, §2, §3, §4, §5

[2] = test system: trypsin pre-incubated with aprotinin; experiment: Fluorescence anisotropy binding, aprotinin-blocked trypsin; settings: inhibitor and protein both at 20 μM; Figure S3B
Text: Figure S3. The fluorescent anisotropy evaluation of binding affinity between DPMD peptide with Proteinase K (A), and inhibitor-saturated and blocked trypsin (B) and chymotrypsin (C). Trypsin/Chymotrypsin was saturated and blocked by aprotinin (Yeasen Biotechnology, trypsin/chymotrypsin inhibitor). (D-H) The fluorescent anisotropy evaluation of binding affinity between DPMD peptide with elastase (D), lipase (E), amylase(F), carboxypeptidase (G), albumin (H) and immunoglobulins (I).
Figure S4. The DLS analysis of trypsin, chymotrypsin and DPMD with/without trypsin or chymotrypsin. […]
data acquisition. A series of enzyme solutions with varying concentrations (maximum concentrations of trypsin and chymotrypsin were 20 μM each) were prepared in Tris-HCl buffer (10 mM Tris, 150 mM NaCl, 1 mM EDTA, pH 7.0). These enzyme solutions were added to the 96-well plate and incubated with 100 nM DPMD at room temperature for 30 minutes, with triplicates.
Fluorescence polarization was measured with an excitation wavelength of 470 nm and an emission […]
Plot the fluorescence intensity versus concentration data as scatter plots using Origin software.
For data analysis, fit the concentration-fluorescence polarization data with the logistic function in Origin 2021 software to obtain the fitting curve and determine the half-maximal effective concentration (EC50). […]

Chymotrypsin = Chymotrypsin activity assay (BTEE); type: biochemical; settings: Figure 2C
Procedure: and the product's absorbance at […] was dynamically and real-time monitored using a microplate […]
During the chymotrypsin activity assay, DPMD was incorporated into chymotrypsin. The final concentration of chymotrypsin was set at 10 μg/mL, and the final concentration of DPMD was 5 mg/mL. In the corresponding control group, an equal volume of the buffer solution prepared by the kit was added. Subsequently, the enzyme-peptide mixture was added to the reaction system containing the substrate N-Benzoyl-L-Tyrosine Ethyl Ester (BTEE) at a ratio of 1:100 (where the proportion of the enzyme-peptide mixture solution was 1) for the detection of enzyme activity. The reaction was carried out at 25 ℃, and the product's absorbance at 256 nm was dynamically and real-time monitored using a microplate reader. The experimental result was represented by the enzyme reaction's degree of completion. All the tests were repeated three independent times.
NIH-3T3 cells were obtained from the National Collection of Authenticated Cell Cultures. HUVECs were obtained from Procell. All cells were maintained in DMEM media at 37°C with 5% CO₂. […] Cell viability was evaluated by the CCK-8 assay (Dojindo) at 1-, 3-, 5-, and 7-days post-treatment. […] The absorbance at 450 nm was recorded using a microplate reader […]

T2 sequence (P02769 25-607): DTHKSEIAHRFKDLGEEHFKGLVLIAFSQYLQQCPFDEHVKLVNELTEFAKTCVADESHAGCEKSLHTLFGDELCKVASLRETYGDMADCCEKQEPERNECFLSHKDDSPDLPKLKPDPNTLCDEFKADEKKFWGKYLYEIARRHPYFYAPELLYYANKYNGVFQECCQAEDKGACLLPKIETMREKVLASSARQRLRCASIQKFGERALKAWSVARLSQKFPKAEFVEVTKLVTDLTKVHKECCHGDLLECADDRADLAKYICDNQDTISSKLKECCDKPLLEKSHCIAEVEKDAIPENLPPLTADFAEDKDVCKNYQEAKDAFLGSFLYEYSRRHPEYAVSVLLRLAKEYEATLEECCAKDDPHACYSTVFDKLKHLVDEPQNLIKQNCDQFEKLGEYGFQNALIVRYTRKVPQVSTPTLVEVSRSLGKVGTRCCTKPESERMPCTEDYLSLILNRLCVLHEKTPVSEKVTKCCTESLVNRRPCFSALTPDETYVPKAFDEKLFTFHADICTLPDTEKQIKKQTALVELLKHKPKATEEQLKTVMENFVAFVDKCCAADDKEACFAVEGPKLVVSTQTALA
T1 sequence (P00772 27-266): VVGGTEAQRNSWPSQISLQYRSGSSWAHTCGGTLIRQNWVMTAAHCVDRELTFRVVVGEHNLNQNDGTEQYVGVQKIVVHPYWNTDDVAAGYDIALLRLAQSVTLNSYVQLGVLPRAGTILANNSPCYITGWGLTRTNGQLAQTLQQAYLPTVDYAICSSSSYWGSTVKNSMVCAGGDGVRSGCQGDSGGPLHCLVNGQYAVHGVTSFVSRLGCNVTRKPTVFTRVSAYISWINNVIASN

How did the “anisotropy increase with elastase” value (elastase) turn out when `CC[C@@H](C)[C@@H](NC(=O)[C@@H](CCC(N)=O)NC(=O)[C@H](NC(=O)[C@@H](Cc1ccc(O)cc1)NC(=O)CNC(=O)[C@@H](CC(C)C)NC(=O)[C@H](NC(=O)[C@@H](CO)NC(=O)CNC(=O)[C@@H](C)NC(=O)[C@@H](CC(=O)O)NC(=O)[C@@H](C)NC(=O)[C@@H](CCCNC(=N)N)NC(=O)[C@@H](C)NC(=O)[C@@H](CC(=O)O)NC(=O)[C@@H](C)NC(=O)[C@@H](CCCNC(=N)N)NC(=O)[C@@H](C)NC(=O)[C@@H](CC(=O)O)NC(=O)[C@@H](C)NC(=O)[C@@H](CCCNC(=N)N)NC(=O)[C@@H](C)NC(=O)[C@@H](CC(=O)O)NC(=O)[C@@H](C)NC(=O)[C@H](N)CCCNC(=N)N)C(C)C)[C@H](C)CC)C(=O)N[C@H](CCCNC(=N)N)C(=O)O` [DPMD, Ac‐(D‐RADA)4‐CONH2] (H-[dR][dA][dD][dA][dR][dA][dD][dA][dR][dA][dD][dA][dR][dA][dD][dA]G[dS][dV][dL]G[dY][dI][dQ][dI][dR]-OH; N-terminus and C-terminus assumed) was run?
The value was “no significant anisotropy increase”.

What about the “anisotropy increase with carboxypeptidase A” value (carboxypeptidase A) of the same molecule?
The value was “no significant anisotropy increase”.

And the “anisotropy increase with BSA” value [1]?
Its value is “no significant anisotropy increase”.

What about the “anisotropy increase with α-amylase” value (α-amylase) of the same molecule?
Its value is “no significant anisotropy increase”.

What about the “anisotropy increase with IgG” value (IgG) of the same molecule?
Its value is “no significant anisotropy increase”.

And the “anisotropy increase with pancreatic lipase” value (pancreatic lipase)?
The value was “no significant anisotropy increase”.

What about the “anisotropy change with aprotinin-blocked trypsin” value [2] of the same molecule?
The value was “only a minimal anisotropy change”.

And the “suppression of enzymatic activity of Chymotrypsin” value (Chymotrypsin)?
The value was “almost complete extent”.
